Results published in US7629376B2, “3-substituted-5- and 6-aminoalkyl indole-2-carboxylic acid amides and related analogs as inhibitors of casein kinase I” (Aventis Pharmaceuticals Inc., priority 2004, dated 2009).

Legend:
[1] = tested on: Mper1-luc Rat-1 fibroblasts (P2C4); assay: Cellular Circadian Assay (Mper1-luc reporter period lengthening); assay type: cell-based; conditions: effective micromolar concentration that induces a 1 hour lengthening of period
Method: Cellular Circadian Assay Experimental Procedures
Stable transfection: Co-transfect Rat-1 fibroblast cultures at 30-50% confluence with vectors containing the Zeocin resistance selectable marker for stable transfection and an mPer1 promoter-driven luciferase reporter gene. After 24-48 hours, split the cultures onto 96 well plates and maintain in growth media supplemented with 50-100 μg/mL Zeocin (Invitrogen #45-0430) for 10-14 days. Assess Zeocin-resistant stable transfectants for reporter expression by supplementing growth media with 100 μM luciferin (Promega #E1603) and assaying luciferase activity on a TopCount scintillation counter (Packard Model #C384V00). […] Select Mper1-luc Rat-1 fibroblasts clone P2C4 for compound testing.
After synchronization, rinse cultures with 100 μL EMEM (Cellgro #10-010-CV) for 10 minutes at room temperature. […] Add compounds to be tested for circadian effects to CO2-independent media in 0.3% DMSO (final concentration).
Estimate in vivo luciferase activity by measuring relative light output on a TopCount scintillation counter (Packard Model #C384V00). Transfer plates from incubator to reader using an ORCA robotic arm (Beckman Instruments) and SAMI-NT automated scheduling software (Version 3.3; SAGIAN/Beckman Instruments).
Data Analysis Use Microsoft Excel and XLfit (Version 2.0.9; IDBS) to import, manipulate and graph data. Perform period analysis either by determining the interval between relative light output minima over several days or by Fourier Transform. […] Analyze the data by fitting a hyperbolic curve to the data expressed as period change (y-axis) versus the concentration of test compound (x-axis) in XLfit and interpolate the EC ? t+1h from this curve.

casein kinase 1ε = biological target: T1, casein kinase 1ε (Homo sapiens, UniProt P49674); assay: Casein Kinase Epsilon 33P-ATP Filter Plate Assay for Screening CK1ε Inhibitors; assay type: biochemical
T1 construct: made in house
T1 sequence (P49674 whole entry): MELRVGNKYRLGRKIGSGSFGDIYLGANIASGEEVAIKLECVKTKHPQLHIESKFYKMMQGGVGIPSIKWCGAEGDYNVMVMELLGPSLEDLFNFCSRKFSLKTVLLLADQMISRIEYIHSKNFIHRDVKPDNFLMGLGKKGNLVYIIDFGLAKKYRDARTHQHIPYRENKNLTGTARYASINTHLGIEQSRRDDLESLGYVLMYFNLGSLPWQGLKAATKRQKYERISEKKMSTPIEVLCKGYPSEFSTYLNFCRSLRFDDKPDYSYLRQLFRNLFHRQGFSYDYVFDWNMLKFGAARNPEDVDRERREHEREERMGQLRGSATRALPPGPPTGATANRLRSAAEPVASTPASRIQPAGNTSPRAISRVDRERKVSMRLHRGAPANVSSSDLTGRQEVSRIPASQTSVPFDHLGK
Method: Casein Kinase Epsilon ^33P-ATP Filter Plate Assay for Screening CK1ε Inhibitors
Purpose: This assay measures the ability of compounds to inhibit the phosphorylation of the substrate casein by the enzyme casein kinase 1ε using an in vitro ^33P-ATP filtration assay.
The above are stored as 100 μL aliquots at minus 80° C. • Compounds: • Supply compounds for testing as frozen 10 mM compound stock dissolved in 100% DMSO. Assay Conditions: • Final total assay volume per well is equal to 50 μL that one prepares as follows: • 5 μL of diluted compound stock (10, 1, 0.1, 0.01 or 0.001 μM), • 5 μL of dephosphorylated casein final concentration 0.2 μg/μL, • 20 μL of CK1ε final concentration 3 ng/μL, and • 20 μL of γ-^33P-ATP final concentration 0.02 μCi/μL mixed with cold ATP (10 μM final). Methodology: • 1. Prepare 500 mL of fresh assay buffer: 50 mM Tris pH 7.5, 10 nm MgCl2, 2 mM DTT and 1 mM EGTA • 2. Obtain compounds to be evaluated as 10 μL of 10 mM stock dissolved in 100% DMSO. Use a Biomek 2000 liquid handling robot, make serial dilutions to yield 10, 1, 0.1, 0.01 and 0.001 μM final compound dilutions added as 5 μL additions to Falcon U bottom plates. […] A routine screening assay will consist of 32 compounds, which equals 4 assay plates. • 3.
• 4. Add 5 μL of compound as indicated, then add 5 μL of dephosphorylated casein (dissolved in distilled H20) (0.2 μg/μL) and 20 μL CK1ε (3 ng/μL) to the appropriate wells. • 5. Finally add 20 μL γ-^33P-ATP (0.02 μCi/μL)/10 μM cold ATP (equals approximately 2×10^6 CPM per well). • 6. Vortes the Falcon U-Bottom assay plate containing the above 50 μL reaction volume and then incubate at room temperature for 2 hours. • 7. At the end of 2 hours, stop the reaction by the addition of 65 μL of ice cold 2 mM cold ATP (made up in assay buffer) to the assay plates using a Beckman Multimek. • 8. At the same time add 25 μL 100% ice cold TCA made up in distilled H20 to a matching number of Millipore MAPH filter plates. • 9. Using a handheld 8-channel pipettor, transfer 100 μL of the reaction mixture from the Falcon U-Bottom Plate to the Millipore MAPH filter plates presoaked with TCA. • 10. Mix the Millipore MAPH filter plates gently and allow to sit at room temperature for at least 30 minutes to precipitate the proteins. • 11. After 30 minutes, place the filter plates on a Millipore vacuum manifold and filter at no more than 8 mm Hg as the MAPH filters tend to “air lock” at higher vacuum settings. • 12. […] Allow the plates to dry overnight at room temperature. The next day add 40 μL Packard Microscint-20 Scintillation Fluid per well using a Titertek Multidrop dispenser; seal the plates and count for 2 minutes/well in a Packard Topcount NXT Scintillation Counter (to provide CPM values/well). Calculation: • 1. Import Counts Per Minute (CPM) data into a proprietary data calculation and archiving database (Activity Base by IDBS version 5.0). • 2. Column 1 for each plate reflects total phosphorylation activity of the enzyme in the absence of any inhibiting compound and thus represents 100%. Column 12 reflects any nonspecific phosphorylation/retained radioactivity activity in the absence of inhibiting compound and enzyme. Typically one observes approximately 1% of Total CPMs that are “nonspecific”. • 3.

| Molecule | Cell Assay ECΔτ1h [1] [µM] | Ki (casein kinase 1ε) [nM] | melting point [°C] |
| --- | --- | --- | --- |
| 3-(3-Fluorophenylsulfanyl)-5-methylaminomethyl-1H-indole-2-carboxylic acid amide [Ie] | 3.34 | – | – |
| CC(C)(C)OC(=O)N1CCCN(Cc2ccc3[nH]c(C(N)=O)c(Sc4ccccc4)c3c2)CC1 [Ir, 4-(2-Carbamoyl-3-phenylsulfanyl-1H-indol-5-ylmethyl)-[1,4]diazepane-1-carboxylic acid tert-butyl ester] | >10 | 130 | – |
| NC(=O)c1[nH]c2ccc(CN3CCCNCC3)cc2c1Sc1ccccc1 [Is, 5-[1,4]Diazepan-1-ylmethyl-3-phenylsulfanyl-1H-indole-2-carboxylic acid amide] | 7.85 | 120 | – |
| 3-(3-Chlorophenylsulfanyl)-5-methylaminomethyl-1H-indole-2-carboxylic acid amide | 5.67 | – | – |
| CC(CO)NCc1ccc2[nH]c(C(N)=O)c(Sc3ccccc3)c2c1 (stereo not shown) [Ix, 5-[(2-Hydroxy-1-methyl-ethylamino)methyl]-3-phenylsulfanyl-1H-indole-2-carboxylic acid amide] | – | 130 | 192.7 to 193.6 |
| NC(=O)c1[nH]c2ccc(CNc3ccccc3F)cc2c1Sc1ccccc1 [Iai, 5-[(2-Fluorophenylamino)methyl]-3-phenylsulfanyl-1H-indole-2-carboxylic acid amide] | 6.91 | 6850 | – |
| NCc1ccc2[nH]c(C(N)=O)c(Sc3ccccc3)c2c1 [Ia, 5-Aminomethyl-3-phenylsulfanyl-1H-indole-2-carboxylic acid amide] | 0.44 | 70 | – |
| CCCCCNCc1ccc2[nH]c(C(N)=O)c(Sc3ccccc3)c2c1 [Im, 5-Pentylaminomethyl-3-phenylsulfanyl-1H-indole-2-carboxylic acid amide] | 4.55 | 64 | – |
| NC(=O)c1[nH]c2ccc(CNC3CC4CCC3C4)cc2c1Sc1ccccc1 (stereo not shown) [It] | 2.70 | 450 | – |
| NC(=O)c1[nH]c2ccc(CN3CCN(c4ncccn4)CC3)cc2c1Sc1ccccc1 [Ip, 3-Phenylsulfanyl-5-(4-pyrimidin-2-yl-piperazin-1-ylmethyl)-1H-indole-2-carboxylic acid amide] | 1.87 | 74 | – |
| NC(=O)c1[nH]c2ccc(CN3CCN(CC=Cc4ccccc4)CC3)cc2c1Sc1ccccc1 [Iq, 5-[4-(3-Phenylpropenyl)piperazin-1-ylmethyl]-3-phenylsulfanyl-1H-indole-2-carboxylic acid amide] | >3 | 310 | – |
| CC(C)(C)OC(=O)NCc1ccc2c(Sc3ccccc3)c(C(N)=O)[nH]c2c1 [IIb, (2-Carbamoyl-3-phenylsulfanyl-1H-indol-6-ylmethyl)-carbamic acid tert-butyl ester] | – | 2330 | 118 to 121 |
| NC(=O)c1[nH]c2cc(CNCc3ccc(-c4ccccc4)cc3)ccc2c1Sc1ccccc1 [IIj, 6-{[(Biphenyl-4-ylmethyl)amino]methyl}-3-phenylsulfanyl-1H-indole-2-carboxylic acid amide] | – | 1390 | – |
| NC(=O)c1[nH]c2ccc(CN3CCN(c4ccc(F)cc4)CC3)cc2c1Sc1ccccc1 [Iaa, 5-[4-(4-Fluorophenyl)piperazin-1-ylmethyl]-3-phenylsulfanyl-1H-indole-2-carboxylic acid amide] | – | > 10000 | – |
| NC(=O)c1[nH]c2cc(CNC(=O)[C@@H](N)Cc3c[nH]c4ccccc34)ccc2c1Sc1ccccc1 [IIs] | – | 100 | – |
